The target of the assay is T1, SLO3 (Homo sapiens, UniProt A8MYU2).
T1 sequence (A8MYU2 1-1149): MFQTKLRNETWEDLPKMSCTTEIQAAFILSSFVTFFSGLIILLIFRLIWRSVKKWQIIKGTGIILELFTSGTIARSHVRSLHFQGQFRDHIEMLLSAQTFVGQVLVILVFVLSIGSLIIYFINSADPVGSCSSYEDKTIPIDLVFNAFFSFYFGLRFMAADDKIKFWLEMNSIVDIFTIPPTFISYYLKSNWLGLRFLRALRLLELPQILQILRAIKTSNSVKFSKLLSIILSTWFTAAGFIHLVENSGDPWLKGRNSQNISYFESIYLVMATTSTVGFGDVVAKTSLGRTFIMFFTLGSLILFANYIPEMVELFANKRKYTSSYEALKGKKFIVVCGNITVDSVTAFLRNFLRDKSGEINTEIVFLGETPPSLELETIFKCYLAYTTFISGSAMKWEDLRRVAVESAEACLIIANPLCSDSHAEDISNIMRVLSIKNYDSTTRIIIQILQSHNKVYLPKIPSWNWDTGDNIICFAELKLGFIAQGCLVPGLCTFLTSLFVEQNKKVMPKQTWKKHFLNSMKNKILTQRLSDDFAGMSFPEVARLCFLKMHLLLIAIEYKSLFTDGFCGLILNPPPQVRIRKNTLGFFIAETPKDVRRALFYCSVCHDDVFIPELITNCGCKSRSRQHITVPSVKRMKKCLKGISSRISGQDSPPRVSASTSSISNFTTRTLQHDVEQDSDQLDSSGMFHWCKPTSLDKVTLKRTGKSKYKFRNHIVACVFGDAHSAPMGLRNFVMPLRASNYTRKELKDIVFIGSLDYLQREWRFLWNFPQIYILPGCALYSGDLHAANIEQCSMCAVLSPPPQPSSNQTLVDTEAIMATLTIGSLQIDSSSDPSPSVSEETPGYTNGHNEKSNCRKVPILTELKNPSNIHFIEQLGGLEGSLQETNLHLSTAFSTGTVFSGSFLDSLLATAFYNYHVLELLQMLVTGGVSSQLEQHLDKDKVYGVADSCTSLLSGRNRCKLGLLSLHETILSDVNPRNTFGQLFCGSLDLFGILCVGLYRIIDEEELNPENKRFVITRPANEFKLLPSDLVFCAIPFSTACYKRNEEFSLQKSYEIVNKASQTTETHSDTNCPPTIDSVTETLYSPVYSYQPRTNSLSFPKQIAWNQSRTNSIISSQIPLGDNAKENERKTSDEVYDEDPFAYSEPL
T1 sequence (Q8N7C0 24-313 partner): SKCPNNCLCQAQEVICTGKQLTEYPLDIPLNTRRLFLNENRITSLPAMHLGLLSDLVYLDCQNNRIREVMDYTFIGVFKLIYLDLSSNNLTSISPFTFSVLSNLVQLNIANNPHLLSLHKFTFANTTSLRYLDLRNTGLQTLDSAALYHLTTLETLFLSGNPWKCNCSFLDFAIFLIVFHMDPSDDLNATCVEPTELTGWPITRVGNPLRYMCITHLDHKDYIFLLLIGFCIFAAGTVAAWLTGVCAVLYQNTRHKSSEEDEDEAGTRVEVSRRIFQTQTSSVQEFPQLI
Kind of assay: Tl+ flux assay. The class given is cell-based.

With `FC(F)(F)c1cc(NC(=S)Nc2ccc(Br)cc2-c2nnn[nH]2)cc(C(F)(F)F)c1` [NS11021], the “Tl+ flux assay (activation; 100 μM used in the screen)” value is “found that the SLO1 activator NS11021 also activates SLO3 at high concentrations (Fig. 1B)”.

(Values after article PMC9942793 (Proceedings of the National Academy of Sciences of the …, 2023).)
